Results: patent publication EP4707280A1, “1,4-CINEOLE DERIVATIVE AND INTERMEDIATE THEREOF, HERBICIDE CONTAINING SAID DERIVATIVE AS ACTIVE INGREDIENT, METHOD FOR USING HERBICIDE, AND METHOD FOR PREPARING AGROCHEMICAL COMPOSITION” (HOKKO CHEMICAL INDUSTRY CO., LTD., priority 2023, dated 2024)

How the values were obtained:
Format in all cases: in vivo
Echinochloa crus-galli [1] = assay: Test Example 8: herbicidal effect test by stem and leaf treatment in upland field (low dose); details: Echinochloa crus-galli; 7.5 g per 10 ares; sprayed seven days after sowing, upland soil; 14 days after application; read-out: weed inhibition rate
Digitaria ciliaris [2] = assay: as above; details: Digitaria ciliaris; 7.5 g per 10 ares; sprayed seven days after sowing, upland soil; 14 days after application; read-out: weed inhibition rate
Monochoria vaginalis [3] = assay: Test Example 1: herbicidal effect test by soil application in paddy rice; details: Pontederia vaginalis, soil, 336 h; 120 g active ingredient per 10 ares; applied immediately after sowing, flooded pots; 14 days after application; read-out: weed inhibition rate
Method in brief: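 Inhibition rate (%) read 14 days after treatment, duplicate pots. Water-diluted emulsifiable concentrate was applied by dropper at 120 g active ingredient/10 ares right after sowing. Seeds (30 per species, 0–1 cm deep) went into puddled paddy soil kept flooded at about 3 cm in a greenhouse.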

Scirpus juncoides [4] = assay: as above; details: Schoenoplectiella juncoides, soil, 336 h; 120 g active ingredient per 10 ares; applied immediately after sowing, flooded pots; 14 days after application; read-out: weed inhibition rate
Method in brief: (§1)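 Pre-emergence paddy soil application, 120 g a.i./10 a, emulsifiable concentrate diluted in water, applied by dropper right after sowing. Seeds (30/species) sown 0–1 cm in puddled, fertilized soil; flooded ~3 cm; glass greenhouse.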

[5] = tested on: Echinochloa crus-galli var. formosensis; assay: as above; details: Echinochloa crus-galli, soil, 336 h; 120 g active ingredient per 10 ares; applied immediately after sowing, flooded pots; 14 days after application; read-out: weed inhibition rate
Method in brief: as §1

Echinochloa crus-galli [6] = assay: Test Example 3: herbicidal effect test by soil application in upland field; details: Echinochloa crus-galli, 120 g per 10 ares, sprayed one day after sowing, 14 days after application, read-out: weed inhibition rate
Method in brief: (§2)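 Weed inhibition (%) was assessed 14 days after treatment, in duplicate per concentration group. Seeds had been mixed into the upper 1 cm of upland alluvial loam, and the soil surface was sprayed one day later with the diluted emulsifiable concentrate at 120 g active ingredient per 10 ares.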

Digitaria ciliaris [7] = assay: as above; details: Digitaria ciliaris, 120 g per 10 ares, sprayed one day after sowing, 14 days after application, read-out: weed inhibition rate
Method in brief: as §2

Scirpus juncoides [8] = assay: Test Example 6: herbicidal effect test by application during growth period of paddy rice (low dose); details: Schoenoplectiella juncoides; 7.5 g per 10 ares; applied seven days after sowing, flooded pots; 14 days after application; read-out: weed inhibition rate
Method in brief: (§3)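 Emulsifiable concentrate, water-diluted, dropped onto flooded paddy pots 7 days post-sowing at 7.5 g active ingredient/10 a. Greenhouse-grown weeds; percent inhibition scored at day 14 after treatment.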

Monochoria vaginalis [9] = assay: as above; details: Pontederia vaginalis; 7.5 g per 10 ares; applied seven days after sowing, flooded pots; 14 days after application; read-out: weed inhibition rate
Method in brief: as §3

Chenopodium album = assay: Test Example 3: herbicidal effect test by soil application in upland field; details: 120 g per 10 ares, sprayed one day after sowing, 14 days after application, read-out: weed inhibition rate
Method in brief: as §2

Amaranthus viridis = assay: as above; details: Amaranthus viridis, 120 g per 10 ares, sprayed one day after sowing, 14 days after application, read-out: weed inhibition rate
Method in brief: as §2

CC(C)[C@]12C[C@@H](OCc3ccccc3)[C@](C)(C[C@@H]1Br)O2 [1-15, (1S,2R,4R,5S)-5-bromo-1-methyl-2-phenylmethoxy-4-isopropyl-7-oxabicyclo[2.2.1]heptane]
≥ 80%: inhibition at 75 g/ha (Echinochloa crus-galli [1]) | inhibition at 75 g/ha (Digitaria ciliaris [2]) | pest or weed control at 1200 g/ha (Monochoria vaginalis [3]) | pest or weed control at 1200 g/ha (Scirpus juncoides [4]) | pest or weed control at 1200 g/ha [5] | inhibition at 1200 g/ha (Echinochloa crus-galli [6]) | inhibition at 1200 g/ha (Digitaria ciliaris [7]) | inhibition at 75 g/ha (Scirpus juncoides [8]) | inhibition at 75 g/ha (Monochoria vaginalis [9])

CC(C)[C@]12C[C@@H](OCc3c(F)cccc3F)[C@](C)(C[C@@H]1Br)O2 [1-21, (1S,2R,4R,5S)-5-bromo-2-[(2,6-difluorophenyl)methoxy]-1-methyl-4-isopropyl-7-oxabicyclo[2.2.1]heptane]
≥ 80%: inhibition at 75 g/ha (Echinochloa crus-galli [1]) | inhibition at 75 g/ha (Digitaria ciliaris [2]) | pest or weed control at 1200 g/ha (Monochoria vaginalis [3]) | pest or weed control at 1200 g/ha (Scirpus juncoides [4]) | pest or weed control at 1200 g/ha [5] | inhibition at 1200 g/ha (Echinochloa crus-galli [6]) | inhibition at 1200 g/ha (Digitaria ciliaris [7]) | inhibition at 75 g/ha (Scirpus juncoides [8]) | inhibition at 75 g/ha (Monochoria vaginalis [9])

Cc1ccccc1CO[C@@H]1C[C@]2(C(C)C)O[C@@]1(C)C[C@@H]2O [1-24, (1R,2S,4S,5R)-1-isopropyl-4-methyl-5-((2-methylbenzyl)oxy)-7-oxabicyclo[2.2.1]heptan-2-ol]
≥ 80%: inhibition at 75 g/ha (Echinochloa crus-galli [1]) | inhibition at 75 g/ha (Digitaria ciliaris [2]) | pest or weed control at 1200 g/ha (Monochoria vaginalis [3]) | pest or weed control at 1200 g/ha (Scirpus juncoides [4]) | pest or weed control at 1200 g/ha [5] | inhibition at 1200 g/ha (Echinochloa crus-galli [6]) | inhibition at 1200 g/ha (Digitaria ciliaris [7]) | inhibition at 75 g/ha (Scirpus juncoides [8]) | inhibition at 75 g/ha (Monochoria vaginalis [9])

CC(C)[C@]12C[C@@H](OCc3c(F)cccc3F)[C@](C)(CC1C)O2 (stereo partly drawn) [1-111, (1S,2R,4R)-2-((2,6-difluorobenzyl)oxy)-4-isopropyl-1,5-dimethyl-7-oxabicyclo[2.2.1]heptane]
≥ 80%: inhibition at 75 g/ha (Echinochloa crus-galli [1]) | inhibition at 75 g/ha (Digitaria ciliaris [2]) | pest or weed control at 1200 g/ha (Monochoria vaginalis [3]) | pest or weed control at 1200 g/ha (Scirpus juncoides [4]) | pest or weed control at 1200 g/ha [5] | inhibition at 1200 g/ha (Echinochloa crus-galli [6]) | inhibition at 1200 g/ha (Chenopodium album) | inhibition at 1200 g/ha (Digitaria ciliaris [7])

CCC1C[C@]2(C)O[C@@]1(C(C)C)C[C@H]2OCc1ccccc1C (stereo partly drawn) [1-123, (1R,4S,5R)-2-ethyl-1-isopropyl-4-methyl-5-((2-methylbenzyl)oxy)-7-oxabicyclo[2.2.1]heptane]
≥ 80%: inhibition at 75 g/ha (Echinochloa crus-galli [1]) | inhibition at 75 g/ha (Digitaria ciliaris [2]) | pest or weed control at 1200 g/ha (Monochoria vaginalis [3]) | pest or weed control at 1200 g/ha [5] | inhibition at 1200 g/ha (Echinochloa crus-galli [6]) | inhibition at 1200 g/ha (Chenopodium album) | inhibition at 1200 g/ha (Digitaria ciliaris [7])

CCC1C[C@]2(C)O[C@@]1(C(C)C)C[C@H]2OCc1ccccc1F (stereo partly drawn) [1-126, (1R,4S,5R)-2-ethyl-5-[(2-fluorobenzyl)oxy]-1-isopropyl-4-methyl-7-oxabicyclo[2.2.1]heptane]
≥ 80%: inhibition at 75 g/ha (Echinochloa crus-galli [1]) | inhibition at 75 g/ha (Digitaria ciliaris [2]) | pest or weed control at 1200 g/ha (Monochoria vaginalis [3]) | pest or weed control at 1200 g/ha (Scirpus juncoides [4]) | pest or weed control at 1200 g/ha [5] | inhibition at 1200 g/ha (Echinochloa crus-galli [6]) | inhibition at 1200 g/ha (Chenopodium album) | inhibition at 1200 g/ha (Digitaria ciliaris [7])

CCO[C@H]1C[C@]2(C)O[C@@]1(C(C)C)C[C@H]2OCc1ccccc1F [1-183, (1S,2R,4R,5S)-5-ethoxy-2-[(2-fluorophenyl)methoxy]-1-methyl-4-isopropyl-7-oxabicyclo[2.2.1]heptane]
≥ 80%: inhibition at 75 g/ha (Echinochloa crus-galli [1]) | inhibition at 75 g/ha (Digitaria ciliaris [2]) | pest or weed control at 1200 g/ha (Monochoria vaginalis [3]) | pest or weed control at 1200 g/ha (Scirpus juncoides [4]) | pest or weed control at 1200 g/ha [5] | inhibition at 1200 g/ha (Echinochloa crus-galli [6]) | inhibition at 1200 g/ha (Digitaria ciliaris [7]) | inhibition at 75 g/ha (Scirpus juncoides [8]) | inhibition at 75 g/ha (Monochoria vaginalis [9])

Cc1ccc(CO[C@@H]2C[C@]3(C(C)C)O[C@@]2(C)C[C@@H]3Br)cc1 [1-681, (1S,2R,4R,5S)-5-bromo-1-methyl-2-[(4-methylphenyl)methoxy]-4-isopropyl-7-oxabicyclo[2.2.1]heptane]
≥ 80%: inhibition at 75 g/ha (Echinochloa crus-galli [1]) | inhibition at 75 g/ha (Digitaria ciliaris [2]) | pest or weed control at 1200 g/ha (Monochoria vaginalis [3]) | pest or weed control at 1200 g/ha (Scirpus juncoides [4]) | pest or weed control at 1200 g/ha [5] | inhibition at 1200 g/ha (Echinochloa crus-galli [6]) | inhibition at 1200 g/ha (Digitaria ciliaris [7]) | inhibition at 75 g/ha (Scirpus juncoides [8]) | inhibition at 75 g/ha (Monochoria vaginalis [9])

CC(C)[C@]12C[C@@H](OCc3ccc(F)cc3)[C@](C)(C[C@@H]1Br)O2 [1-691, (1S,2R,4R,5S)-5-bromo-2-[(4-fluorophenyl)methoxy]-1-methyl-4-isopropyl-7-oxabicyclo[2.2.1]heptane]
≥ 80%: inhibition at 75 g/ha (Echinochloa crus-galli [1]) | inhibition at 75 g/ha (Digitaria ciliaris [2]) | pest or weed control at 1200 g/ha (Monochoria vaginalis [3]) | pest or weed control at 1200 g/ha (Scirpus juncoides [4]) | pest or weed control at 1200 g/ha [5] | inhibition at 1200 g/ha (Echinochloa crus-galli [6]) | inhibition at 1200 g/ha (Digitaria ciliaris [7]) | inhibition at 75 g/ha (Scirpus juncoides [8]) | inhibition at 75 g/ha (Monochoria vaginalis [9])

CC(C)[C@]12C[C@@H](OCc3ccsc3)[C@](C)(C[C@@H]1Br)O2 [1-722, (1S,2R,4R,5S)-5-bromo-1-methyl-4-isopropyl-2-(thiophen-3-ylmethoxy)-7-oxabicyclo[2.2.1]heptane]
≥ 80%: inhibition at 75 g/ha (Echinochloa crus-galli [1]) | pest or weed control at 1200 g/ha (Monochoria vaginalis [3]) | pest or weed control at 1200 g/ha (Scirpus juncoides [4]) | pest or weed control at 1200 g/ha [5] | inhibition at 1200 g/ha (Echinochloa crus-galli [6]) | inhibition at 1200 g/ha (Digitaria ciliaris [7]) | inhibition at 75 g/ha (Scirpus juncoides [8]) | inhibition at 75 g/ha (Monochoria vaginalis [9])

CC(C)C12CC(OCc3ccccc3F)C(C)(CC1Br)O2 (stereo not shown) [1-1355, 5-bromo-2-[(2-fluorophenyl)methoxy]-1-methyl-4-isopropyl-7-oxabicyclo[2.2.1]heptane]
≥ 80%: inhibition at 75 g/ha (Echinochloa crus-galli [1]) | inhibition at 75 g/ha (Digitaria ciliaris [2]) | pest or weed control at 1200 g/ha (Monochoria vaginalis [3]) | pest or weed control at 1200 g/ha (Scirpus juncoides [4]) | pest or weed control at 1200 g/ha [5] | inhibition at 1200 g/ha (Echinochloa crus-galli [6]) | inhibition at 1200 g/ha (Digitaria ciliaris [7]) | inhibition at 75 g/ha (Scirpus juncoides [8]) | inhibition at 75 g/ha (Monochoria vaginalis [9])

Cc1cccc(F)c1CO[C@@H]1C[C@]2(C(C)C)O[C@@]1(C)CC2=O [2-353, (1R,4S,5R)-5-((2-fluoro-6-methylbenzyl)oxy)-1-isopropyl-4-methyl-7-oxabicyclo[2.2.1]heptan-2-one]
≥ 80%: inhibition at 75 g/ha (Echinochloa crus-galli [1]) | inhibition at 75 g/ha (Digitaria ciliaris [2]) | pest or weed control at 1200 g/ha (Monochoria vaginalis [3]) | pest or weed control at 1200 g/ha (Scirpus juncoides [4]) | pest or weed control at 1200 g/ha [5] | inhibition at 1200 g/ha (Echinochloa crus-galli [6]) | inhibition at 1200 g/ha (Digitaria ciliaris [7]) | inhibition at 75 g/ha (Scirpus juncoides [8]) | inhibition at 75 g/ha (Monochoria vaginalis [9])

CC(C)[C@]12C[C@@H](OCc3c(F)cccc3Br)[C@](C)(CC1=O)O2 [2-355, (1R,4S,5R)-5-((2-bromo-6-fluorobenzyl)oxy)-1-isopropyl-4-methyl-7-oxabicyclo[2.2.1]heptan-2-one]
≥ 80%: inhibition at 75 g/ha (Echinochloa crus-galli [1]) | inhibition at 75 g/ha (Digitaria ciliaris [2]) | pest or weed control at 1200 g/ha (Monochoria vaginalis [3]) | pest or weed control at 1200 g/ha (Scirpus juncoides [4]) | pest or weed control at 1200 g/ha [5] | inhibition at 1200 g/ha (Echinochloa crus-galli [6]) | inhibition at 1200 g/ha (Digitaria ciliaris [7]) | inhibition at 75 g/ha (Scirpus juncoides [8]) | inhibition at 75 g/ha (Monochoria vaginalis [9])

CC(C)[C@]12C=C[C@](C)(O1)[C@H](OCc1ccccc1)C2 [3-1, (1R,4S,5R)-4-methyl-5-phenylmethoxy-1-isopropyl-7-oxabicyclo[2.2.1]hept-2-ene]
≥ 80%: inhibition at 75 g/ha (Echinochloa crus-galli [1]) | inhibition at 75 g/ha (Digitaria ciliaris [2]) | pest or weed control at 1200 g/ha (Monochoria vaginalis [3]) | pest or weed control at 1200 g/ha (Scirpus juncoides [4]) | pest or weed control at 1200 g/ha [5] | inhibition at 1200 g/ha (Echinochloa crus-galli [6]) | inhibition at 1200 g/ha (Digitaria ciliaris [7]) | inhibition at 75 g/ha (Scirpus juncoides [8]) | inhibition at 75 g/ha (Monochoria vaginalis [9])

Cc1ccccc1CO[C@@H]1C[C@@]2(C(C)C)C=C[C@]1(C)O2 [3-2, (1R,4S,5R)-4-methyl-5-[(2-methylphenyl)methoxy]-1-isopropyl-7-oxabicyclo[2.2.1]hept-2-ene]
≥ 80%: inhibition at 75 g/ha (Echinochloa crus-galli [1]) | pest or weed control at 1200 g/ha (Monochoria vaginalis [3]) | pest or weed control at 1200 g/ha (Scirpus juncoides [4]) | pest or weed control at 1200 g/ha [5] | inhibition at 1200 g/ha (Amaranthus viridis) | inhibition at 1200 g/ha (Echinochloa crus-galli [6]) | inhibition at 1200 g/ha (Digitaria ciliaris [7]) | inhibition at 75 g/ha (Scirpus juncoides [8]) | inhibition at 75 g/ha (Monochoria vaginalis [9])
